The species entered for assay [1] is Homo sapiens. Description: Relative activity was determined at 0.3 mM of compound in ovarian cancer sera in alpha-L-(1-3) fucosyltransferase assay using [14C]-fucose as a ligand. Type of assay: functional.
The test system of assay [2] is Ovarian carcinoma cell. The assay is described as follows: Relative activity was determined at 0.3 mM of compound in ovarian-tumor extract in alpha-L-(1-3) fucosyltransferase assay using [14C]fucose as a ligand. The assay is classed as functional, Homo sapiens.
A short description of assay [3]: Kinetic constant of the enzyme activity was determined by incorporation of [14C]- fucose as a function of acceptor concentration.
Assay [4] deals with Ovarian carcinoma cell. The assay is described as follows: (§1) Percentage of fucosyltransferase accepted by the compound in alpha-L-(1-3) fucosyltransferase assay using [14C]fucose as a ligand. The assay is classed as functional, Homo sapiens.
The species named for assay [5] is Homo sapiens. The description is as §1. The assay is classed as functional.
Assay [6] deals with Ovarian carcinoma cell. The assay is described as follows: Percentage of fucosyltransferase accepted by the compound in alpha-L-(1-3) fucosyltransferase assay using [14C]-fucose as a ligand. Type of assay: functional, Homo sapiens.
The species entered for assay [7] is Homo sapiens. Description: Percentage of fucosyltransferase accepted by the compound in alpha-L-(1-3) fucosyltransferase assay using [14C]fucose as a ligand;=. The assay is classed as functional.

The structures appear in SMILES notation.

Data on five compounds can be found in ChEMBL document CHEMBL1150462, “Synthesis of 2-O-substituted -D-Gal-(14)--D-GlcNAc-1-0-Bn as specific acceptors for -L-(13) fucosyltransferases” (1992).

A word on the Km: it is the concentration of substrate that gives half-maximal velocity. As to `CO[C@H]1[C@H](O[C@H]2[C@H](O)[C@@H](NC(C)=O)[C@H](OCc3ccccc3)O[C@@H]2CO)O[C@H](CO)[C@H](O)[C@@H]1O`, the Relative activity stood at 5330 c.p.m in the assay filed under Homo sapiens [1], 14924 c.p.m in the assay on Ovarian carcinoma cell [2], 375% in the assay on Ovarian carcinoma cell [4] and 308% in the assay filed under Homo sapiens [5]. Besides, the Michaelis constant (Km) in assay [3] was 440 µM.

Take `CC(=O)N[C@@H]1[C@@H](O)[C@H](O[C@@H]2O[C@H](CO)[C@H](O)[C@H](O)[C@H]2O[C@@H]2O[C@@H](C)[C@@H](O)[C@@H](O)[C@@H]2O)[C@@H](CO)O[C@H]1O`: the Relative activity in the assay listed under Homo sapiens [1] was 4380 c.p.m; in the assay on Ovarian carcinoma cell [2] it was 18291 c.p.m; in the assay with Ovarian carcinoma cell [4], 100%; in the assay listed under Homo sapiens [5], 100%.

For the compound `CO[C@H]1[C@H](O[C@H]2[C@H](O)[C@@H](NC(C)=O)C(O)O[C@@H]2CO)O[C@H](CO)[C@H](O)[C@@H]1O` (stereo partly specified), the Relative activity amounted to 1730 c.p.m in the assay listed under Homo sapiens [1], 100% with Ovarian carcinoma cell [6], 3977 c.p.m in the assay with Ovarian carcinoma cell [2] and 100% in the assay listed under Homo sapiens [5]. The Km in assay [3] is 1330 µM.

`CC(=O)N[C@@H]1[C@@H](O)[C@H](O[C@@H]2O[C@H](CO)[C@H](O)[C@H](O)[C@H]2O)[C@@H](CO)O[C@H]1O`: the Relative activity came out at 1620 c.p.m in the assay filed under Homo sapiens [1] and 5024 c.p.m in the assay on Ovarian carcinoma cell [2].

With `CC(=O)N[C@H]1[C@H](OCc2ccccc2)O[C@H](CO)[C@@H](O[C@@H]2O[C@H](CO)[C@H](O)[C@H](O)[C@H]2O[C@@H]2O[C@@H](C)[C@@H](O)[C@@H](O)[C@@H]2O)[C@@H]1O`, the Relative activity in the assay listed under Homo sapiens [1] came out at 7350 c.p.m; with Ovarian carcinoma cell [6], 233%; in the assay with Ovarian carcinoma cell [2] it was 42580 c.p.m; in the assay listed under Homo sapiens [7] it was 168%. Also, the Michaelis-Menten constant (Km) in assay [3] is 260 µM.
